Key:
[1] = target: T1, recombinant human FLAP protein (Homo sapiens, UniProt P20292); experiment: FLAP binding assay (Scintillation Proximity Assay, displacement of [125I]L-691,831); settings: recombinant human FLAP membranes, [125I]L-691,831 probe; read-out: FLAP SPA IC50
T1 construct: made in house; host or cells: Sf9 insect cells (100,000 x g membrane fraction)
T1 sequence (P20292 1-161): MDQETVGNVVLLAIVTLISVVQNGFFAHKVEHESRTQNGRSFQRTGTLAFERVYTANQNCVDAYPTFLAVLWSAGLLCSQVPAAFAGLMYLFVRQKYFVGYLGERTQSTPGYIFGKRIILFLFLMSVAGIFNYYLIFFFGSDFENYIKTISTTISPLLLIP
Experimental: Cell pellets produced from sf9 insect cells expressing recombinant human FLAP protein are resuspended in buffer A [15 mM Tris-HCl (pH 7.5), 2 mM MgCl2, 0.3 mM EDTA, 1 mM PMSF]. The cells are lysed with a Dounce homogenizer and the material is centrifuged at 10,000×g for 10 minutes. The supernatant is then collected and centrifuged at 100,000×g for 60 minutes. To prepare membrane protein for an assay, an aliquot of the 100,000×g pellet is resuspended in 1 ml of buffer A, Dounce homogenized, and finally subjected to polytron mixing (30 seconds). Membrane protein (25 μl, 5 μg) is mixed with WGA SPA beads (Amersham) and stirred for 1 h.

[2] = tested on: synthesis of LTB4 in human whole blood; experiment: human whole blood LTB4 production inhibition assay; format: cell-based; settings: Homo sapiens, heparinized human whole blood, calcimycin 20 μM; read-out: hWB LTB4 IC50
Experimental: Compounds are additionally tested in a human whole blood assay to determine their ability to inhibit the synthesis of LTB4 in a cellular system. Compounds are combined with heparinized human whole blood and incubated for 15 minutes at 37° C. Calcimycin (20 μM final, prepared in phosphate-buffered saline, pH 7.4) is then added and the mixture is incubated for another 30 minutes at 37° C. The samples are centrifuged for 5 min at low speed (1500×g) and the plasma layer is removed. Plasma LTB4 concentrations are then measured using an antibody-based homogenous time-resolved fluorescence method (CisBio, Bedford, Mass.).

Row | Structure (SMILES) | IC50 [1] [nM] | IC50 [2] [nM]
1 | Nc1ncc(-c2ccc(C3(c4noc(-c5cccn(CCO)c5=O)n4)CCC3)cc2)cn1 [Example 67, 3-(3-{1-[4-(2-Amino-pyrimidin-5-yl)-phenyl]-cyclobutyl}-1,2,4-oxadiazol-5-yl)-1-(2-hydroxy-ethyl)-1H-pyridin-2-one] | 12 | 290
2 | Cc1cccc(-c2nc(C3(c4ccc(-c5cnc(N)nc5)cc4)CCC3)no2)c1 [Example 34, 5-{4-[1-(5-m-tolyl-1,2,4-oxadiazol-3-yl)-cyclobutyl]-phenyl}-pyrimidin-2-ylamine] | 7.7 | 780
3 | Nc1ncc(-c2ccc(C3(c4noc(-c5ccnc(NCCO)c5)n4)CCC3)cc2)cn1 [Example 95, 2-[4-(3-{1-[4-(2-Amino-pyrimidin-5-yl)-phenyl]-cyclobutyl}-1,2,4-oxadiazol-5-yl)-pyridin-2-ylamino]-ethanol] | 3.2 | 130
4 | Cn1ccc(-c2nc(C3(c4ccc(-c5cnc(N)nc5)cc4)CCC3)no2)n1 [Example 92, 5-(4-{1-[5-(1-Methyl-1I-pyrazol-3-yl)-1,2,4-oxadiazol-3-yl]-cyclobutyl}-phenyl)-pyrimidin-2-ylamine] | 4.9 | 150
5 | Cn1cc(-c2nc(C3(c4ccc(-c5cnc(N)nc5)cc4F)CCC3)no2)cn1 [Example 117, 5-(3-Fluoro-4-{1-[5-(1-methyl-1H-pyrazol-4-yl)-1,2,4-oxadiazol-3-yl]-cyclobutyl}-phenyl)-pyrimidin-2-ylamine] | 2.6 | 140
6 | CNC(=O)c1ccc(-c2nc(C3(c4ccc(-c5cnc(N)nc5)cc4)CCC3)no2)cn1 [Example 28, 5-(3-{1-[4-(2-Amino-pyrimidin-5-yl)-phenyl]-cyclobutyl}-1,2,4-oxadiazol-5-yl)-pyridine-2-carboxylic acid methylamide] | 4.3 | 320
7 | Cn1cc(-c2nc(C3(c4ccc(-c5cnc(N)nc5)cc4)CC(F)(F)C3)no2)cn1 [Example 122, 5-(4-{3,3-Difluoro-1-[5-(1-methyl-1H-pyrazol-4-yl)-1,2,4-oxadiazol-3-yl]-cyclobutyl}-phenyl)-pyrimidin-2-ylamine] | 14 | 360
8 | Nc1ncc(-c2ccc(C3(c4noc(-c5cc[nH]n5)n4)CCC3)cc2)cn1 [Example 93, 5-(4-{1-[5-(1H-Pyrazol-3-yl)-1,2,4-oxadiazol-3-yl]-cyclobutyl}-phenyl)-pyrimidin-2-ylamine] | 2.4 | 160
9 | Nc1ncc(-c2ccc(C3(c4noc(-c5ccc(N6CCS(=O)(=O)CC6)nc5)n4)CCC3)cc2)cn1 [Example 107, 5-[4-(1-{5-[6-(1,1-Dioxo-1λ^6-thiomorpholin-4-yl)-pyridin-3-yl]-1,2,4-oxadiazol-3-yl}-cyclobutyl)-phenyl]-pyrimidin-2-ylamine] | 1.4 | 98
10 | CCn1cnc(-c2nc(C3(c4ccc(-c5cnc(N)nc5)cc4)CCC3)no2)c1 [Example 87, 5-(4-{1-[5-(1-Ethyl-1H-imidazol-4-yl)-1,2,4-oxadiazol-3-yl]-cyclobutyl}-phenyl)-pyrimidin-2-ylamine] | 4.5 | 150
11 | CN(CCO)c1cc(-c2nc(C3(c4ccc(-c5cnc(N)nc5)cc4)CCC3)no2)ccn1 [Example 94, 2-{[4-(3-{1-[4-(2-amino-pyrimidin-5-yl)-phenyl]-cyclobutyl}-1,2,4-oxadiazol-5-yl)-pyridin-2-yl]-methyl-amino}-ethanol] | 6.1 | 560
12 | COCCNc1cnc(-c2nc(C3(c4ccc(-c5cnc(N)nc5)cc4)CCC3)no2)cn1 [Example 62, 5-[4-(1-{5-[5-(2-Methoxy-ethylamino)-pyrazin-2-yl]-1,2,4-oxadiazol-3-yl}-cyclobutyl)-phenyl]-pyrimidin-2-ylamine] | 1.3 | 13
13 | CCNC(=O)c1nc(C2(c3ccc(-c4cnc(N)nc4)cc3)CCC2)no1 [Example 13, 3-{1-[4-(2-Amino-pyrimidin-5-yl)-phenyl]-cyclobutyl}-1,2,4-oxadiazole-5-carboxylic acid ethylamide] | 170 | > 5000

The remaining lines, values ahead:

Row | IC50 [1] [nM] | IC50 [2] [nM] | Structure (SMILES)
14 | 4.6 | 110 | COC1CCN(C(=O)Cn2cc(-c3nc(C4(c5ccc(-c6cnc(N)nc6)cc5)CCC4)no3)cn2)C1 (centres unmarked) [Example 210, 2-[4-(3-{1-[4-(2-Amino-pyrimidin-5-yl)-phenyl]-cyclobutyl}-[1,2,4]oxadiazol-5-yl)-pyrazol-1-yl]-1-(3-methoxy-pyrrolidin-1-yl)-ethanone]
15 | 250 | > 5000 | Nc1ncc(-c2ccc(C3(c4noc(-c5cn(C(c6ccccc6)(c6ccccc6)c6ccccc6)cn5)n4)CCC3)cc2)cn1 [Example 244, 5-(4-{1-[5-(1-Trityl-1H-imidazol-4-yl)-[1,2,4]oxadiazol-3-yl]-cyclobutyl}-phenyl)-pyrimidin-2-ylamine]
16 | 4.4 | 68 | Nc1ncc(-c2ccc(C3(c4noc(-c5cnn(CC(=O)NCC(F)(F)F)c5)n4)CCC3)cc2)cn1 [Example 140, 2-[4-(3-{1-[4-(2-Amino-pyrimidin-5-yl)-phenyl]-cyclobutyl}-1,2,4-oxadiazol-5-yl)-pyrazol-yl]-N-(2,2,2-trifluoro-ethyl)-acetamide]
17 | 8.8 | 220 | Cn1cc(-c2nc(C3(c4ccc(-c5cnc(N)c(CO)c5)cc4)CCC3)no2)cn1 [Example 274, [2-Amino-5-(4-{1-[5-(1-methyl-1H-pyrazol-4-yl)-[1,2,4]oxadiazol-3-yl]-cyclobutyl}-phenyl)-pyridin-3-yl]-methanol]
18 | 180 | > 5000 | Nc1ncc(-c2ccc(C3(c4noc(Cc5ccccc5)n4)CCOCC3)cc2)cn1 [Example 150, 5-{4-[4-(5-Benzyl-1,2,4-oxadiazol-3-yl)-tetrahydro-pyran-4-yl]-phenyl}-pyrimidin-2-ylamine]
19 | 6 | 450 | Cc1ncc(-c2nc(C3(c4ccc(-c5cnc(N)nc5)cc4)CCC3)no2)cn1 [Example 165, 5-(4-{1-[5-(2-Methyl-pyrimidin-5-yl)-1,2,4-oxadiazol-3-yl]-cyclobutyl}-phenyl)-pyrimidin-2-ylamine]
20 | 5.6 | 410 | Cn1cncc1-c1nc(C2(c3ccc(-c4cnc(N)nc4)cc3)CCC2)no1 [Example 176, 5-(4-{1-[5-(3-Methyl-3H-imidazol-4-yl)-1,2,4-oxadiazol-3-yl]-cyclobutyl}-phenyl)-pyrimidin-2-ylamine]
21 | 8.6 | 220 | CC(=O)N1CCN(CCn2cc(-c3nc(C4(c5ccc(-c6cnc(N)nc6)cc5)CCC4)no3)cn2)CC1 [Example 250, 1-(4-{2-[4-(3-{1-[4-(2-Amino-pyrimidin-5-yl)-phenyl]-cyclobutyl}-[1,2,4]oxadiazol-5-yl)-pyrazol-1-yl]-ethyl}-piperazin-1-yl)-ethanone]
22 | 2.2 | 44 | Cc1nc(-c2ccc(C3(c4noc(-c5cnn(C)c5)n4)CCC3)cc2)cnc1N [Example 222, 3-Methyl-5-(4-{1-[5-(1-methyl-1H-pyrazol-4-yl)-[1,2,4]oxadiazol-3-yl]-cyclobutyl}-phenyl)-pyrazin-2-ylamine]
23 | 0.88 | 53 | CCNc1ccc(-c2nc(C3(c4ccc(-c5cnc(N)nc5)cc4)CCC3)no2)cn1 [Example 183, 5-(4-{1-[5-(6-Ethylamino-pyridin-3-yl)-1,2,4-oxadiazol-3-yl]-cyclobutyl}-phenyl)-pyrimidin-2-ylamine]
24 | 12 | 580 | C[C@@H]1CCC[C@H](C)N1c1nc(C2(c3ccc(-c4cnc(N)nc4)cc3)CCC2)no1 [Example 306, 5-(4-{1-[5-(cis-2,6-Dimethyl-piperidin-1-yl)-[1,2,4]oxadiazol-3-yl]-cyclobutyl}-phenyl)-pyrimidin-2-ylamine]
25 | 2.6 | 140 | Nc1ncc(-c2ccc(C3(c4noc(-c5cc[nH]c(=O)c5)n4)CCC3)cc2)cn1 [Example 184, 4-(3-{1-[4-(2-Amino-pyrimidin-5-yl)-phenyl]-cyclobutyl}-1,2,4-oxadiazol-5-yl)-1H-pyridin-2-one]
26 | 36 | 2200 | CN(C)C(=O)Cn1cnc(-c2nc(C3(c4ccc(-c5cnc(N)nc5)cc4)CCC3)no2)c1 [Example 251, 2-[4-(3-{1-[4-(2-Amino-pyrimidin-5-yl)-phenyl]-cyclobutyl}-[1,2,4]oxadiazol-5-yl)-imidazol-1-yl]-N,N-dimethyl-acetamide]
27 | 14 | 820 | Nc1ncc(-c2ccc(C3(c4noc(-c5ccncn5)n4)CCC3)cc2)cn1 [Example 171, 5-{4-[1-(5-Pyrimidin-4-yl-1,2,4-oxadiazol-3-yl)-cyclobutyl]-phenyl}-pyrimidin-2-ylamine]
28 | 8.1 | 75 | Nc1ncc(-c2ccc(C3(c4noc(-c5cnn(CCN6CCCC6)c5)n4)CCC3)cc2)cn1 [Example 253, 5-[4-(1-{5-[1-(2-Pyrrolidin-1-yl-ethyl)-1H-pyrazol-4-yl]-[1,2,4]oxadiazol-3-yl}-cyclobutyl)-phenyl]-pyrimidin-2-ylamine]
